Values joined by “and” are separate entries in the source; they are usually repeats but may differ in a detail not shown here. Equal values may be shown once.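 Cultured in 96-well plates, cells were exposed to test compound for 48 hours across five concentrations. Abbreviation: GI50, concentration required for 50% inhibition of growth. TGI denotes the concentration required for complete inhibition of growth.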
Key:
Test in all cases: DTP human tumour cell line panel, 48 h
SW-620 colon = test system: SW-620 colon
UACC-62 melanoma = test system: UACC-62 melanoma
TK-10 renal = test system: TK-10 renal
COLO 205 colon = test system: COLO 205 colon
U251 CNS = test system: U251 CNS
IGROV1 ovarian = test system: IGROV1 ovarian
786-0 renal = test system: 786-0 renal
NCI-H226 lung = test system: NCI-H226 lung
NCI-H522 lung = test system: NCI-H522 lung
SN12C renal = test system: SN12C renal

Row | SMILES | TGI (SW-620 colon) | TGI (UACC-62 melanoma) | TGI (TK-10 renal) | TGI (COLO 205 colon) | TGI (U251 CNS) | TGI (IGROV1 ovarian) | TGI (786-0 renal) | TGI (NCI-H226 lung) | TGI (NCI-H522 lung) | TGI (SN12C renal) | GI50 (TK-10 renal) [µM] | GI50 (COLO 205 colon) [µM] | GI50 (UACC-62 melanoma) | GI50 (U251 CNS) | GI50 (NCI-H226 lung) [µM] | GI50 (NCI-H522 lung) [µM]
1 | COc1ccc(/C=C2\CN(C)Cc3c2nc(N)nc3-c2ccc(OC)cc2)cc1 | > 100 µM | > 100 µM | > 100 µM | > 100 µM | > 100 µM | > 100 µM | > 100 µM | > 100 µM | > 100 µM | > 100 µM | – | – | – | – | – | –
2 | CCCC(=O)O | > 18700 µM | 4930 µM | > 18700 µM | 9160 µM | > 18700 µM | > 18700 µM | > 18700 µM | > 18700 µM | > 18700 µM | > 18700 µM | 2120 | 2550 | – | – | – | –
3 | O=C1CSC2(CC(/C=C/c3ccccc3)=NN2c2cccc(S(=O)(=O)O)c2)N1c1nc2ccccc2s1 (centres undefined) | > 100 µM | 45.2 µM | 46.9 µM | > 100 µM | 42.1 µM | 56.6 µM | 33 µM | > 100 µM | 37 µM | 71.2 µM | – | – | – | – | – | –
4 | Cc1ccc(C)n1-c1ccccc1C1SCCCS1 | > 100 µM | > 100 µM | > 100 µM | > 100 µM | > 100 µM | > 100 µM | > 100 µM | > 100 µM | > 100 µM | > 100 µM | – | – | – | – | – | –
5 | C1CC2=C(C1)[Se]C(=C1Sc3nsnc3S1)[Se]2 | > 100 µM | > 100 µM | > 100 µM | > 100 µM | > 100 µM | > 100 µM | > 100 µM | > 100 µM | > 100 µM | > 100 µM | – | – | – | – | – | –
6 | CN1C/C(=C\c2cccs2)C2=NC(=S)NC(c3cccs3)C2C1 (centres undefined) | > 100 µM | > 100 µM | > 100 µM | > 100 µM | > 100 µM | > 100 µM | > 100 µM | > 100 µM | > 100 µM | > 100 µM | – | – | – | – | – | –
7 | O=C(O)CCCl | > 5000 µM | 4740 µM | > 5000 µM | > 5000 µM | > 5000 µM | > 5000 µM | > 5000 µM | > 5000 µM | > 5000 µM | > 5000 µM | – | – | – | – | – | –
8 | c1ccc(CNC2CC(NCc3ccccn3)CC(NCc3ccccn3)C2)nc1 (centres undefined) | 41.7 µM and 25 µM and 32.9 µM | 5.27 µM and 12.1 µM and 3.53 µM | 17.8 µM and 10.8 µM | 4.02 µM and 4.61 µM and 3.21 µM | 3.88 µM and 9.35 µM and 3.36 µM | 10.1 µM and 11.1 µM and 22.5 µM | 9.95 µM and 5.87 µM and 6.09 µM | 6.07 µM and 7.07 µM and 5.39 µM | 6.36 µM and 12.2 µM and 4.68 µM | 20.8 µM and 13.6 µM and 17.7 µM | – | – | 2.3 µM and 4.72 µM and 1.83 µM | 1.95 µM and 4.9 µM and 1.88 µM | 2.77 | 2.16
9 | CC[n+]1cnc(N)c2c(-c3ccc(Cl)cc3)cn(-c3ccc(C)cc3)c21 | 30.5 µM | 24.3 µM | 31.6 µM | 17.1 µM | 24.3 µM | 26.5 µM | 23.5 µM | 28.2 µM | 31.2 µM | 25.2 µM | – | – | – | – | – | –
10 | O=C(CSCC(=O)N/N=C/c1cc(I)cc(I)c1O)N/N=C/c1cc(I)cc(I)c1O | > 100 µM | 31.9 µM | 31.6 µM | 63.8 µM | 26.2 µM | 25.3 µM | 22.2 µM | 41.1 µM | 35 µM | > 100 µM | – | – | – | – | – | –
11 | COc1ccc(Cn2c(C)nc3c2C(=O)c2ccccc2C3=O)cc1 | > 75 µM | 14 µM | > 75 µM | 22.6 µM | > 75 µM | 38.6 µM | 40 µM | 48.2 µM | 15.5 µM | > 75 µM | – | – | – | – | – | –
12 | COc1cc(/C=C/C(=O)OCC23CC[C@@]4(C(=O)O)CCC(C)[C@H](C)C4C2=CCC2[C@@]4(C)CC[C@H](O)C(C)(C)C4CC[C@]23C)ccc1O (some centres undefined) | > 100 µM | 41.9 µM | 8.9 µM | – | 76.1 µM | 57.2 µM | 31.7 µM | 71.8 µM | 31.2 µM | 67.8 µM | – | – | – | – | – | –
13 | C=C(C)[C@@]1(O)O[C@H]2C[C@@]3(C)OC(=CC3=O)/C(C)=C\[C@@H]3OC(=O)[C@@]1(C)[C@H]32 | 19.5 µM | 35.7 µM | 42.1 µM | 35.3 µM | 33.6 µM | 24.9 µM | 26.7 µM | 69.8 µM | 15.6 µM | 34.9 µM | – | – | – | – | – | –
14 | O=C1c2c(F)c(F)c(F)c(F)c2SC2=NCCN12 | 6.29 µM | 19.2 µM | 22.4 µM | 19 µM | 22.9 µM | 17.7 µM | 19.8 µM | 34.5 µM | 10.1 µM | 21.8 µM | – | – | – | – | – | –
15 | Clc1ccc2c(SCC3CO3)c3ccccc3nc2c1 (centres undefined) | 5.24 µM | > 100 µM | 3.35 µM | 10.7 µM | – | 2.9 µM | 3.44 µM | > 100 µM | 5.64 µM | 7.35 µM | – | – | – | – | – | –
16 | Cc1ccc(C2CC(=O)CC(c3ccc(C)cc3)C23C(=O)NC(=O)NC3=O)cc1 (centres undefined) | > 100 µM | > 100 µM | > 100 µM | > 100 µM | > 100 µM | > 100 µM | > 100 µM | > 100 µM | > 100 µM | > 100 µM | – | – | – | – | – | –
17 | CCOc1cc2c(cc1O)/C(=N\N)C[C@@H]1[C@@H]2CC[C@]2(C)[C@@H](O)CC[C@@H]12 | 17.8 µM | 41.9 µM | > 68 µM | > 56.5 µM | > 48.9 µM | 39.2 µM | > 38.5 µM | 29.2 µM | 5.58 µM | > 42.4 µM | – | – | – | – | – | –
18 | CCOc1ccc2nc(NC(=O)C(=O)C(C(=O)c3ccccc3-c3ccccc3)C3OC(=O)c4ccccc43)sc2c1 (centres undefined) | 60.1 µM | 34.8 µM | 41.9 µM | 37 µM | 31.7 µM | > 68 µM | 34.6 µM | 21.5 µM | 32 µM | 51.9 µM | – | – | – | – | – | –
19 | CCOC(=O)c1ccc(N=NN(C)C(=O)C(C)N)cc1 (centres undefined) | > 100 µM | > 100 µM | > 100 µM | > 100 µM | > 100 µM | > 100 µM | > 100 µM | > 100 µM | > 100 µM | > 100 µM | – | – | – | – | – | –
20 | OCC1OC(c2scc3c(=S)nc[nH]c23)C(O)C1O (centres undefined) | > 93.1 µM | 45.6 µM | > 100 µM | 33.5 µM | > 100 µM | 46.5 µM | > 100 µM | 85.4 µM | 82.4 µM | > 100 µM | – | – | – | – | – | –
21 | CNC(=O)c1ccccc1-[s+]1c2ccccc2c(=O)n1C (centres undefined) | > 100 µM | > 100 µM | > 100 µM | > 100 µM | > 100 µM | > 100 µM | > 100 µM | > 100 µM | > 100 µM | > 100 µM | – | – | – | – | – | –

Reference: PubChem BioAssay (NCI)
